Results reported in patent US20220062310A1, “[…] PATIENTS WITH OBSESSIVE-COMPULSIVE DISORDER” (YALE UNIVERSITY, priority 2020, published 2022).

Experiments:
humans [1] = conditions: oral doses of up to 0.6 mg/kg; cited from earlier work
[2] = tested on: serotonin 5-hydroxytryptamine (5-HT) receptors; conditions: after conversion in the body to psilocin; most affinity to 5-HT2A and 5-HT2C, lesser to 5-HT1A; cited from earlier work
[3] = tested on: patients with treatment resistant OCD; test: Same OCD study: depression scores (Montgomery-Asberg Depression Rating Scale); assay type: in vivo, human; conditions: single dose 0.25 mg/kg; scores not high in most subjects
Source text: (§1) Research Materials and Measures: Participants can complete self-report and clinician-administered measures of OCD symptoms, anxiety, depression, quality of life, and spirituality at baseline, prior to psilocybin session, and during all designated study visits. […]

humans [4] = test: Estimated lethal dose of pure psilocybin in humans; conditions: 0.25 mg/kg versus LD50 in nonhuman animals and in humans
[5] = tested on: patients with treatment resistant OCD; test: Same OCD study: state and trait anxiety scores (STAI); assay type: in vivo, human; conditions: single dose 0.25 mg/kg
Source text: as §1

[6] = non-medical use as mushrooms; cited from earlier work
OCD symptoms = conditions: low doses (2 mg-4 mg); cited from earlier work
[7] = tested on: patients with treatment resistant OCD; test: Double-blind, placebo controlled study of psilocybin in OCD (NCT03356483): acute-YBOCS / YBOCS
study participants = conditions: cited from earlier work
mice = conditions: cited from earlier work
humans [8] = conditions: pure psilocybin; cited from earlier work
rats = conditions: cited from earlier work

For `CN(C)CCc1c[nH]c2cccc(OP(=O)(O)O)c12` [psilocybin, 3-(2-dimethylaminoethyl)-1H-indol-4-yl] dihydrogen phosphate], the serious adverse events (humans [1]) is given as “no serious adverse events”, the “action at 5-HT receptors” value [2] is given as “partial agonist” and the “depression scores (MADRS, FIG. 5)” value [3] is given as “improved after psilocybin in several subjects”. The “full study dose relative to LD50” value (humans [4]) was “over 100 times smaller”, the “state anxiety scores (FIG. 6)” value [5] was “improved in those subjects whose OCD symptoms also improved” and the “share of drug-related emergency department visits that mention it” value [6] was 0.1%. The “acute effect on OCD symptoms” value (OCD symptoms) was “acutely attenuated OCD symptoms even after low doses”, the “improvement in OCD symptoms after psilocybin in subjects who had previously received placebo (FIG. 4)” value ([7]; open-label, one of three subjects, 12 weeks follow-up) was “robust and lasting improvement in symptoms” and the “persistence of the improvement in symptoms” value ([7]; single dose 0.25 mg/kg, the three improved subjects) was 12 weeks. For the same compound, the “improvement in OCD symptoms (YBOCS, FIG. 2 and 3)” value ([7]; single dose 0.25 mg/kg, three of the subjects receiving psilocybin) was “robust improvement in symptoms”, the “acute-YBOCS score (M) at 48-hours after drug administration” value ([7]; single oral dose 0.25 mg/kg, N=5, baseline M=25.5 (18 to 29), SD=11.52, t(3)=2.71, p=0.036) was 15 and the “reactions requiring pharmacological intervention” value (study participants; 30 mg psilocybin) was “no reactions requiring pharmacological intervention occurred”. The “rates of prolonged psychiatric symptoms of any kind following exposure” value (study participants; healthy study participants) was 0.08-0.09%, the “participants with distress sufficient to contact the researchers” value (study participants; meta-analysis, 110 research participants (1 participant)) was 0.9% and the “participants who endorsed negative changes in psychological well-being” value (study participants; meta-analysis, 110 research participants) was 7 participants. The “duration of common acute side effects” value (study participants; most effects) was “last no longer than six hours”, the “adverse events associated with drug administration” value (study participants; over 2000 participants under controlled conditions) was “no reports of the occurrence of a significance of adverse events” and the “subjects with persistent perceptual symptoms associated with HPPD” value (study participants; review of studies 1999 to 2008, mild, brief, resolved within three days) was “one subject (out of 110)”. The LD50 (mice) was 285 mg/kg, the “best estimate of a lethal dose” value (humans [8]) was “about 19 grams” and the LD50 (rats) was 285 mg/kg.
